The structures appear in SMILES notation. Bounds are passed on as bounds.

Type in all cases: biochemical
In assay [1] the target is T1, KIAA 1361 (baculovirus expressed human KIAA 1361 kinase domain 2-322) (Homo sapiens, UniProt Q7L7X3).
T1 construct: human KIAA 1361 kinase domain 2-322; made in house
T1 sequence (Q7L7X3 2-322): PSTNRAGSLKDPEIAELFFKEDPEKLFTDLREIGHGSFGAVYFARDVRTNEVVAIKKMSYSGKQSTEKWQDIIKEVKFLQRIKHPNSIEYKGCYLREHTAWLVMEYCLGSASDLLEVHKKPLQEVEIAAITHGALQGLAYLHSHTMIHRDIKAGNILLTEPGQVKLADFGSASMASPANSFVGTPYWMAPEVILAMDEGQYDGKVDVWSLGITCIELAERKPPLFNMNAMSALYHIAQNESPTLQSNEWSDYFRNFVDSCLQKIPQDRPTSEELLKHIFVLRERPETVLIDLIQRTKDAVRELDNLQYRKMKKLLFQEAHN
In words: KIAA 1361 Luciferase-Coupled Chemiluminescent Kinase assay (LCCA). Particulars: 2 μM ATP, 10 μM MBP, 12 nM KIAA 1361, 2 hours; read-out: KIAA1361 inhibition IC50. As for the experimental part:
(§1) Kinase activity and compound inhibition are investigated using one or more of the three assay formats described below. The ATP concentrations for each assay are selected to be close to the Michaelis-Menten constant (KM) for each individual kinase. Dose-response experiments are performed at 10 different inhibitor concentrations in a 384-well plate format. The data are fitted to four-parameter equation (2) below; where Y is the observed signal, X is the inhibitor concentration, Min is the background signal in the absence of enzyme (0% enzyme activity), Max is the signal in the absence of inhibitor (100% enzyme activity), IC50 is the inhibitor concentration at 50% enzyme inhibition and H represents the empirical Hill's slope to measure the cooperativity. Typically H is close to unity. Y=Min+(Max−Min)/(1+(X/IC50)ˆH) Equation (2) KIAA 1361 Assay: […]
(§2) KIAA 1361 biochemical activity was assessed using a Luciferase-Coupled Chemiluminescent Kinase assay (LCCA) format. Kinase activity was measured as the percent ATP remaining following the kinase reaction. Remaining ATP was detected by luciferase-luciferin-coupled chemiluminescence. Specifically, the reaction was initiated by mixing test compounds, 2 μM ATP, 10 μM MBP and 12 nM KIAA 1361 (baculovirus expressed human KIAA 1361 kinase domain 2-322) in a 20 uL assay buffer (20 mM Tris-HCL pH7.5, 10 mM MgCl2, 0.02% Triton X-100, 100 mM DTT, 2 mM MnCl2). The mixture is incubated at ambient temperature for 2 hours after which 20 uL luciferase-luciferin mix is added and the chemiluminescent signal read using a Wallac Victor^2 reader. The luciferase-luciferin mix consists of 50 mM HEPES, pH 7.8, 8.5 ug/mL oxalic acid (pH 7.8), 5 (or 50) mM DTT, 0.4% Triton X-100, 0.25 mg/mL coenzyme A, 63 uM AMP, 28 ug/mL luciferin and 40,000 units of light/mL luciferase.

The target in another assay is T2, JIK (Homo sapiens, UniProt Q9H2K8).
T2 construct: 6 nM JIK (baculovirus expressed human KIAA 1361 kinase domain2-318); made in house
T2 sequence (Q9H2K8 2-318): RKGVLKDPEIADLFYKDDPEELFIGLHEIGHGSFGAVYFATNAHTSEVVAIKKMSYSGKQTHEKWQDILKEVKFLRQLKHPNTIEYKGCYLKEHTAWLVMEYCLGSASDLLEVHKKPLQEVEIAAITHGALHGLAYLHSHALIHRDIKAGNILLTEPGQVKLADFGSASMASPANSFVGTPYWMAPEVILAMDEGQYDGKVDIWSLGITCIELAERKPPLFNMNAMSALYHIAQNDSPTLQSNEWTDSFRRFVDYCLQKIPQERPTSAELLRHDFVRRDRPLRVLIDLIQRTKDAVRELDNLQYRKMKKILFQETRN
Briefly: JIK Luciferase-Coupled Chemiluminescent Kinase assay (LCCA). The following applies: 2 μM ATP, 10 μM MBP, 6 nM JIK, 2 hours; read-out: JIK inhibition IC50. The protocol:
as §1
as §2, with “JIK biochemical” for “KIAA 1361 biochemical”, “and 6” for “and 12”, “nM JIK” for “nM KIAA 1361”, “kinase domain2-318)” for “kinase domain 2-322)”

Another assay has as its target T3, TAO (Homo sapiens, UniProt Q9UL54).
T3 sequence (Q9UL54 1-1235): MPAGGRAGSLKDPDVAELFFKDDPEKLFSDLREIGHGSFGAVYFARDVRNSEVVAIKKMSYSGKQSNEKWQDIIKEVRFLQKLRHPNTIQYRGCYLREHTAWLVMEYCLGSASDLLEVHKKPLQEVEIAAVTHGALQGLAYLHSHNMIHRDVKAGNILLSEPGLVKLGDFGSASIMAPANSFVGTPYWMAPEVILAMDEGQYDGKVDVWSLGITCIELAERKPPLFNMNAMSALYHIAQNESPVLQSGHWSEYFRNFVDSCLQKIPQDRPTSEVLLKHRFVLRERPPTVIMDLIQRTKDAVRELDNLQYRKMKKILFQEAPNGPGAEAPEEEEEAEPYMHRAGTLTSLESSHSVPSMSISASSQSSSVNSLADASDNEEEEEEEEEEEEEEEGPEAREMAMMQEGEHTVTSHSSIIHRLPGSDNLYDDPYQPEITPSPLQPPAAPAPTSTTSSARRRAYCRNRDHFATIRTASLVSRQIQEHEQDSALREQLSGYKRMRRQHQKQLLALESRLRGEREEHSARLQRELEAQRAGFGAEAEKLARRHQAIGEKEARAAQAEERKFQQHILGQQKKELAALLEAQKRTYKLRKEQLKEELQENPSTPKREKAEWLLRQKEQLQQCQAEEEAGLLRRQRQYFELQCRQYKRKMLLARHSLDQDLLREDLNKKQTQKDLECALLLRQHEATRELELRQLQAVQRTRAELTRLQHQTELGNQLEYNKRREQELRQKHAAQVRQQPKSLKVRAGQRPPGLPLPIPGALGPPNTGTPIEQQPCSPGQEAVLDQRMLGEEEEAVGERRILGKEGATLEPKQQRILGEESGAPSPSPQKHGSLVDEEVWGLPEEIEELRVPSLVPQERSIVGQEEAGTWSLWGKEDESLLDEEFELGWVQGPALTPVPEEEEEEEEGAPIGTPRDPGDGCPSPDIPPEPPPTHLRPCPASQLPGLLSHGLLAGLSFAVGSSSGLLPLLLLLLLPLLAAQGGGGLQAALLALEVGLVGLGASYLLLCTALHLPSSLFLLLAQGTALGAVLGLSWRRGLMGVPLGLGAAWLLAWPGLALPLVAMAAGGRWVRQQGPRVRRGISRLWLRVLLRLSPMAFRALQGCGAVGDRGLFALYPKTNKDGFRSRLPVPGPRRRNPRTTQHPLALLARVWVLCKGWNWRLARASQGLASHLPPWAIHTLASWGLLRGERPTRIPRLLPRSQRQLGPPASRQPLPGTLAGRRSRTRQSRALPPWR
In words: TAO Luciferase-Coupled Chemiluminescent Kinase assay (LCCA). The following applies: 2 μM ATP, 10 μM MBP, 12 nM TAO, 2 hours; read-out: TAO inhibition IC50. As for the experimental part:
as §1
as §2, with “TAO biochemical” for “KIAA 1361 biochemical”, “nM TAO” for “nM KIAA 1361”, “mM […],” for “mM HEPES,”, “[…]” for “0.25 mg/mL”

The term IC50 denotes the concentration that gives 50% inhibition. As for `COc1ccc2nc(NC(=O)COC(=O)CC(NC(=O)c3ccccc3)c3ccccc3)sc2c1` (stereo not drawn) [Entry 37, 2-{[6-(methyloxy)-1,3-benzothiazol-2-yl]amino}-2-oxoethyl 3-phenyl-3-[(phenylcarbonyl)amino]propanoate], the IC50 (in assay [1]; on JIK; on TAO) was less than 50 nM in each case.

Turning to `CCc1ccc(-c2ccc(C(=O)NCC(=O)NC(C)c3ccccc3)cc2)cc1` (stereo not drawn) [Entry 78, 4′-ethyl-N-{2-oxo-2-[(1-phenylethyl)amino]ethyl}biphenyl-4-carboxamide], the results for the IC50 (in assay [1]; at JIK; on TAO) were 500 to 5000 nM, 50 to 500 nM and greater than 5000 nM, respectively.

For `CCc1ccc(-c2ccc(C(=O)NCC(=O)NCc3ccccc3C(F)(F)F)cc2)cc1` [Entry 79, 4′-ethyl-N-[2-oxo-2-({[2-(trifluoromethyl)phenyl]methyl}amino)ethyl]biphenyl-4-carboxamide], the results for the IC50 (in assay [1]; at JIK; at TAO) were 50 to 500 nM, 50 to 500 nM and greater than 5000 nM, respectively.

Consider `O=C(COc1ccc(Cl)cc1)NCC(=O)NC1CCCc2ccccc21` (stereo not drawn) [Entry 34, N˜2˜-{[(4-chlorophenyl)oxy]acetyl}-N-(1,2,3,4-tetrahydronaphthalen-1-yl)glycinamide], for which the IC50 in assay [1] is greater than 5000 nM; at JIK, 500 to 5000 nM; on TAO, greater than 5000 nM.

Take `O=C(CNC(=O)c1ccc(N2CCOCC2)cc1)NC1CCCc2ccccc21` (stereo not drawn) [Entry 58, 4-morpholin-4-yl-N-[2-oxo-2-(1,2,3,4-tetrahydronaphthalen-1-ylamino)ethyl]benzamide]: the IC50 was greater than 5000 nM in assay [1], 500 to 5000 nM at JIK and greater than 5000 nM on TAO.

Consider `CCc1ccc(-c2ccc(C(=O)NCC(=O)Nc3nc4ccc(OC)cc4s3)cc2)cc1` [Entry 64, 4′ethyl-N-(2-{[6-(methyloxy)-1,3-benzothiazol-2-yl]amino}-2-oxoethyl)biphenyl-4-carboxamide], for which the IC50 (in assay [1]; at JIK; at TAO) was greater than 5000 nM each time.

As to `CCc1ccc(-c2ccc(C(=O)NCC(=O)NCCc3ccccc3)cc2)cc1` [Entry 75, 4′-ethyl-N-{2-oxo-2-[(2-phenylethyl)amino]ethyl}biphenyl-4-carboxamide], the IC50 (in assay [1]; on JIK; on TAO) was greater than 5000 nM in each case.

In the case of `O=C(COc1ccc(Br)cc1)NCC(=O)NC1CCCc2ccccc21` (stereo not drawn) [Entry 3, N˜2˜-{[(4-bromophenyl)oxy]acetyl}-N-(1,2,3,4-tetrahydronaphthalen-1-yl)glycinamide], the figures for the IC50 (in assay [1]; at JIK; on TAO) were 50 to 500 nM, less than 50 nM and 50 to 500 nM, respectively.

For the molecule `CCCCCCCOc1ccc(C(=O)NCC(=O)NC2CCCc3ccccc32)cc1` (stereo not drawn) [Entry 8, 4-(heptyloxy)-N-[2-oxo-2-(1,2,3,4-tetrahydronaphthalen-1-ylamino)ethyl]benzamide], the half-maximal inhibitory concentration (IC50) (in assay [1]; on JIK; at TAO) was 50 to 500 nM in each case.

In the case of `O=C(NCC1COc2ccccc2O1)c1ccc2c(c1)NC(=O)c1ccccc1N2` (stereo not drawn) [Entry 42, N-(2,3-dihydro-1,4-benzodioxin-2-ylmethyl)-11-oxo-10,11-dihydro-5H-dibenzo[b,e][1,4]diazepine-8-carboxamide], the IC50 was 50 to 500 nM in assay [1], less than 50 nM on JIK and 50 to 500 nM on TAO.

As to `O=C(CNC(=O)c1ccc(-c2ccccc2)cc1)NC1CCCc2ccccc21` (stereo not drawn) [Entry 43, N-[2-oxo-2-(1,2,3,4-tetrahydronaphthalen-1-ylamino)ethyl]biphenyl-4-carboxamide], the IC50 (in assay [1]; on JIK; at TAO) was less than 50 nM throughout.

In the case of `CCOCCCNC(=O)c1ccc(C(=O)NCC2COc3ccccc3O2)cc1N` (stereo not drawn) [Entry 62, 2-amino-N-˜4˜-(2,3-dihydro-1,4-benzodioxin-2-ylmethyl)-N˜1˜-[3-(ethyloxy)propyl]benzene-1,4-dicarboxamide], the IC50 (in assay [1]; at JIK; on TAO) was greater than 5000 nM in each case.

The values are drawn from patent publication US20070208166A1, “Tao Kinase Modulators And Method Of Use” (Exelixis, Inc., priority 2003, published 2007).
